Assay results reported in patent US20240101546A1, “HETEROARYL-ACETYLENES, PHARMACEUTICAL COMPOSITIONS THEREOF, AND THEIR THERAPEUTIC APPLICATIONS” (Eubulus Biotherapeutics Inc., priority 2020, published 2024).
pEC50: −log10 of the molar value.

tested on: hepatocellular carcinoma cell line Hub-7; assay: Cell proliferation assay, Hub-7 (CELL-TITER GLO); assay type: cell-based; details: Hub-7 cells, 24 h incubation, cell viability by CELL-TITER GLO, top concentration 10 μM; read-out: EC50, Inhibition of Hub-7 Cell Proliferation
Outline: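 Hub-7 cells, 4,000 per well, seeded overnight, then exposed 24 h to compound from 10 μM top in 3-fold serial dilution. Viability read by CELL-TITER GLO luminescence; EC50 derived and binned into potency categories.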

| pEC50 | SMILES |
| --- | --- |
| ≥ 6.70 | C#Cc1nc(C(=O)NCc2cccc3ccccc23)cs1 [Compound C113, 2-Ethynyl-N-(naphthalen-1-ylmethyl)thiazole-4-carboxamide] |
| ≥ 6.70 | C#Cc1nc(C(=O)NCc2ccc(-c3ccccc3)cc2)cs1 [Compound C114, N-([1,1′-Biphenyl]-4-ylmethyl)-2-ethynylthiazole-4-carboxamide] |
| ≥ 6.70 | C#Cc1nc(C(=O)NCc2cccc(-c3ccccc3)c2)cs1 [Compound C115, N-([1,1′-Biphenyl]-3-ylmethyl)-2-ethynylthiazole-4-carboxamide] |
| 5.30 to 6.00 | C#Cc1nc(C(=O)N(CCC(=O)OCC)Cc2ccccc2)cs1 [Compound C116, Ethyl 3-(N-benzyl-2-ethynylthiazole-4-carboxamido)propanoate] |
| 6.00 to 6.70 | C#Cc1nc(C(=O)NCc2ccc(C(=O)OC)cc2)cs1 [Compound C117, Methyl 4-((2-ethynylthiazole-4-carboxamido)methyl)benzoate] |
| 6.00 to 6.70 | C#Cc1nc(C(=O)NCc2ccc(N)cc2)cs1 [Compound C118, N-(4-Aminobenzyl)-2-ethynylthiazole-4-carboxamide] |
| < 5.30 | C#Cc1nc(C(=O)NCc2ccn(C)n2)cs1 [Compound C119, 2-Ethynyl-N-((1-methyl-1H-pyrazol-3-yl)methyl)thiazole-4-carboxamide] |
| < 5.30 | C#Cc1nc(C(=O)NCc2cnn(C)c2)cs1 [Compound C120, 2-Ethynyl-N-((1-methyl-1H-pyrazol-4-yl)methyl)thiazole-4-carboxamide] |
| 5.30 to 6.00 | C#Cc1nc(C(=O)NCc2ccc(O)cc2)cs1 [Compound C121, 2-Ethynyl-N-(4-hydroxybenzyl)thiazole-4-carboxamide] |
| 5.30 to 6.00 | C#Cc1nc(C(=O)NCCc2ccc(O)c(OC)c2)cs1 [Compound C122, 2-Ethynyl-N-(4-hydroxy-3-methoxyphenethyl)thiazole-4-carboxamide] |
| 6.00 to 6.70 | C#Cc1nc(NC(=O)CCc2ccccc2)cs1 [Compound C123, N-(2-Ethynylthiazol-4-yl)-3-phenylpropanamide] |
| 6.00 to 6.70 | C#Cc1nc(C(=O)NCc2cccc(C(=O)OC)c2)cs1 [Compound C124, Methyl 3-((2-ethynylthiazole-4-carboxamido)methyl)benzoate] |
| ≥ 6.70 | C#Cc1nc(C(=O)NCc2cccc(Cl)c2)cs1 [Compound C125, N-(3-Chlorobenzyl)-2-ethynylthiazole-4-carboxamide] |
| 5.30 to 6.00 | C#Cc1nc(C(=O)NCc2ccccn2)cs1 [Compound C126, 2-Ethynyl-N-(pyridin-2-ylmethyl)thiazole-4-carboxamide] |
| 6.00 to 6.70 | C#Cc1nc(C(=O)NCc2cccc(C#N)c2)cs1 [Compound C127, N-(3-Cyanobenzyl)-2-ethynylthiazole-4-carboxamide] |
| 5.30 to 6.00 | C#Cc1nc(C(=O)NCCc2ccc(N)cc2)cs1 [Compound C128, N-(4-Aminophenethyl)-2-ethynylthiazole-4-carboxamide] |
| ≥ 6.70 | C#Cc1nc(C(=O)NCCc2ccc([N+](=O)[O-])cc2)cs1 [Compound C129, 2-Ethynyl-N-(4-nitrophenethyl)thiazole-4-carboxamide] |
| 5.30 to 6.00 | C#Cc1nc(C(=O)Nc2cccc3[nH]ncc23)cs1 [Compound C130, 2-Ethynyl-N-(1H-indazol-4-yl)thiazole-4-carboxamide] |
| 5.30 to 6.00 | C#Cc1nc(C(=O)N(CC(=O)OCC)Cc2ccccc2)cs1 [Compound C131, Ethyl N-benzyl-N-(2-ethynylthiazole-4-carbonyl)glycinate] |
| < 5.30 | C#Cc1ncc(C(=O)NCc2ccccc2)n1C [Compound C132, N-Benzyl-2-ethynyl-1-methyl-1H-imidazole-5-carboxamide] |
| 5.30 to 6.00 | C#Cc1nc(C(=O)N(CCO)Cc2ccccc2)cs1 [Compound C133, N-Benzyl-2-ethynyl-N-(2-hydroxyethyl)thiazole-4-carboxamide] |
| 5.30 to 6.00 | C#Cc1nc(C(=O)Nc2cccc3cn[nH]c23)cs1 [Compound C134, 2-Ethynyl-N-(11H-indazol-7-yl)thiazole-4-carboxamide] |
| 5.30 to 6.00 | C#Cc1nc(C(=O)NC[C@@H](O)c2ccccc2)cs1 [Compound C135, (S)-2-Ethynyl-N-(2-hydroxy-2-phenylethyl)thiazole-4-carboxamide] |
| < 5.30 | C#Cc1nc(C(=O)NCc2ccccc2NC(C)=O)cs1 [Compound C136, N-(2-Acetamidobenzyl)-2-ethynylthiazole-4-carboxamide] |

| pEC50 | SMILES |
| --- | --- |
| 5.30 to 6.00 | C#Cc1nc(C(=O)N(C)Cc2ccccc2)cs1 [Compound C137, N-Benzyl-2-ethynyl-N-methylthiazole-4-carboxamide] |
| 5.30 to 6.00 | C#Cc1nc(C(=O)NCCc2ccccc2)cs1 [Compound C138, 2-Ethynyl-N-phenethylthiazole-4-carboxamide] |
| < 5.30 | C#Cc1nc(C(=O)NCc2cccc3[nH]ccc23)cs1 [Compound C139, N-((1H-Indol-4-yl)methyl)-2-ethynylthiazole-4-carboxamide] |
| 5.30 to 6.00 | C#Cc1nc(C(=O)NCc2ccccc2N)cs1 [Compound C140, N-(2-Aminobenzyl)-2-ethynylthiazole-4-carboxamide] |
| 5.30 to 6.00 | C#Cc1ncc(C(=O)NCc2ccccc2)s1 [Compound C141, N-Benzyl-2-ethynylthiazole-5-carboxamide] |
| < 5.30 | C#Cc1nc(C(=O)NCc2ccccc2)co1 [Compound C142, N-Benzyl-2-ethynyloxazole-4-carboxamide] |
| 6.00 to 6.70 | C#Cc1nc(C(=O)NCc2ccccc2Cl)cs1 [Compound C143, N-(2-Chlorobenzyl)-2-ethynylthiazole-4-carboxamide] |
| 5.30 to 6.00 | C#Cc1nc(C(=O)NCc2ccccc2OC)cs1 [Compound C144, 2-Ethynyl-N-(2-methoxybenzyl)thiazole-4-carboxamide] |
| < 5.30 | C#Cc1csc(C(=O)NCc2ccccc2)n1 [Compound C145, N-Benzyl-4-ethynylthiazole-2-carboxamide] |
| 5.30 to 6.00 | C#Cc1nc(C(=O)NCc2ccccc2)cs1 [Compound C148, N-Benzyl-2-ethynylthiazole-4-carboxamide] |
| ≥ 6.70 | C#Cc1nc(C(=O)N2CCN(c3ccc(-c4c(C)ccc5c4cnn5C)cc3)CC2)cs1 [Compound D1, (4-(4-(1,5-Dimethyl-1H-indazol-4-yl)phenyl)piperazin-1-yl)(2-ethynylthiazol-4-yl)methanone] |
| ≥ 6.70 | C#Cc1nc(C(=O)N2CCN(c3ccc(-c4cc(C(=O)OC)cc5c4cnn5C)cc3)CC2)cs1 [Compound D2, Methyl 4-(4-(4-(2-ethynylthiazole-4-carbonyl)piperazin-1-yl)phenyl)-1-methyl-1H-indazole-6-carboxylate] |
| 6.00 to 6.70 | C#Cc1nc(C(=O)N2CCN(c3ccc(-c4cc(C(=O)NC)cc5ncsc45)cc3)CC2)cs1 [Compound D3, 7-(4-(4-(2-Ethynylthiazole-4-carbonyl)piperazin-1-yl)phenyl)-N-methylbenzo[d]thiazole-5-carboxamide] |
| ≥ 6.70 | C#Cc1nc(C(=O)N2CCN(c3ccc(-c4cc(C(=O)OC)cc5ncsc45)cc3)CC2)cs1 [Compound D4, Methyl 7-(4-(4-(2-ethynylthiazole-4-carbonyl)piperazin-1-yl)phenyl)benzo[d]-thiazole-5-carboxylate] |
| 5.30 to 6.00 | C#Cc1nc(C(=O)N2CCN(c3ccc(-c4cc(C(N)=O)cc5ncsc45)cc3)CC2)cs1 [Compound D5, 7-(4-(4-(2-Ethynylthiazole-4-carbonyl)piperazin-1-yl)phenyl)benzo[d]thiazole-5-carboxamide] |
| ≥ 6.70 | C#Cc1nc(C(=O)N2CCN(c3ccc(-c4cc(C(=O)N(C)C)cc5ncsc45)cc3)CC2)cs1 [Compound D6, 7-(4-(4-(2-Ethynylthiazole-4-carbonyl)piperazin-1-yl)phenyl)-N,N-dimethyl-benzo[d]thiazole-5-carboxamide] |
| ≥ 6.70 | C#Cc1ncc(C(=O)N2CCN(c3ccc(-c4cccc5ncsc45)cc3)CC2)s1 [Compound D7, (4-(4-(benzo[d]thiazol-7-yl)phenyl)piperazin-1-yl)(2-ethynylthiazol-5-yl)methanone] |
| 6.00 to 6.70 | C#Cc1ncc(C(=O)N2CCN(c3ccc(-c4cccc5scnc45)cc3)CC2)s1 [Compound D8, (4-(4-(Benzo[d]thiazol-4-yl)phenyl)piperazin-1-yl)(2-ethynylthiazol-5-yl)methanone] |
| ≥ 6.70 | C#Cc1nc(C(=O)N2CCN(c3ccc(-c4cccc5ncsc45)cc3Cl)CC2)cs1 [Compound D9, (4-(4-(Benzo[d]thiazol-7-yl)-2-chlorophenyl)piperazin-1-yl)(2-ethynylthiazol-4-yl)methanone] |
| ≥ 6.70 | C#Cc1nc(C(=O)N2CCN(c3ccc(-c4cccc5ncsc45)cn3)CC2)cs1 [Compound D10, (4-(5-(Benzo[d]thiazol-7-yl)pyridin-2-yl)piperazin-1-yl)(2-ethynylthiazol-4-yl)-methanone] |
| ≥ 6.70 | C#Cc1nc(C(=O)N2CCC(F)(c3ccc(-c4cccc5ncsc45)cc3)CC2)cs1 [Compound D11, (4-(4-(Benzo[d]thiazol-7-yl)phenyl)-4-fluoropiperidin-1-yl)(2-ethynylthiazol-4-yl)methanone] |
| ≥ 6.70 | C#Cc1nc(C(=O)N2CCN(c3ccc(-c4cccc5ncsc45)cc3C#N)CC2)cs1 [Compound D12, 5-(Benzo[d]thiazol-7-yl)-2-(4-(2-ethynylthiazole-4-carbonyl)piperazin-1-yl)-benzonitrile] |
| ≥ 6.70 | C#Cc1nc(C(=O)N2CC(c3ccc(-c4cccc5ncsc45)cc3)C2)cs1 [Compound D13, (3-(4-(Benzo[d]thiazol-7-yl)phenyl)azetidin-1-yl)(2-ethynylthiazol-4-yl)-methanone] |
| ≥ 6.70 | C#Cc1nc(C(=O)N2CCC(O)(c3ccc(-c4cccc5ncsc45)cc3)CC2)cs1 [Compound D14, (4-(4-(Benzo[d]thiazol-7-yl)phenyl)-4-hydroxypiperidin-1-yl)(2-ethynylthiazol-4-yl)methanone] |
